Experimental data from the supplement of paper PMC10307832.

compound: NCC(=O)Nc1ccc(-n2nc(C(F)(F)F)cc2-c2ccc3c(ccc4ccccc43)c2)cc1 + COc1cccc2cc(-c3nc([C@H]4CC[C@H](C(=O)O)CC4)n4ncnc(N)c34)[nH]c12 [OSI-027] (partner 0.5 µM); assay: relative viability (nuclei count vs DMSO), 5 days (fraction); higher = more cells survive; details: first compound 0.02 µM
Method in brief: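 Medians of duplicate plates are given as relative viability. That measure is the nuclei count in treated wells divided by the count in vehicle wells. Counts were taken on 4× images of lung cancer cell lines in 1536-well plates, 5 days after pin-tool dosing the day after seeding with one drug alone or a fixed anchor-drug dose plus five library-drug doses (not always all listed) in √10 steps.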

Cell Line	relative viability
HCC-15	0.675
PC-14	0.769
EKVX	0.729
LC-2-ad	0.755
NCI-H1944	0.37
NCI-H1975	0.676
RERF-LC-KJ	0.542
ABC-1	0.558
NCI-H358	0.749
NCI-H650	0.508
PC-3 [JPC-3]	0.802

same assay, conditions: first compound 0.06325 µM

Cell Line	relative viability
NCI-H322M	0.536
LCLC-97TM1	0.567
NCI-H2009	0.613
A-427	0.454
NCI-H661	0.691
NCI-H1734	0.601
NCI-H460	0.642
NCI-H2347	0.484
SK-LU-1	0.358
201T	0.769
NCI-H1915	0.652
HCC-827	0.756
LXF-289	0.801
NCI-H23	0.664
NCI-H647	0.681
CAL-12T	0.651
NCI-H1651	0.929
EPLC-272H	0.246

Cell Line	relative viability
NCI-H2228	0.535
NCI-H1355	0.427
NCI-H3122	0.941
NCI-H1437	0.898
NCI-H1755	0.68
NCI-H2023	0.422
HCC-15	0.679
PC-14	0.949
EKVX	0.646
LC-2-ad	0.911
NCI-H1944	0.442
NCI-H1975	0.811
RERF-LC-KJ	0.608
ABC-1	0.409
NCI-H358	0.842
NCI-H650	0.524
PC-3 [JPC-3]	0.761

same assay, conditions: first compound 0.2 µM

Cell Line	relative viability
NCI-H322M	0.556
LCLC-97TM1	0.503
NCI-H2009	0.703
A-427	0.438
NCI-H661	0.724
NCI-H1734	0.577
NCI-H460	0.696
NCI-H2347	0.606
SK-LU-1	0.441
201T	0.724
NCI-H1915	0.639
HCC-827	0.751
LXF-289	0.787
NCI-H23	0.809
NCI-H647	0.67
CAL-12T	0.644
NCI-H1651	0.628
EPLC-272H	0.28

Cell Line	relative viability
NCI-H2228	0.904
NCI-H1792	0.824
NCI-H1355	0.315
NCI-H3122	0.899
NCI-H1437	0.877
NCI-H1755	0.685
NCI-H2023	0.428
HCC-15	0.689
PC-14	0.937
EKVX	0.673
LC-2-ad	0.647
NCI-H1944	0.427
NCI-H1975	0.772
RERF-LC-KJ	0.515
NCI-H358	0.84
NCI-H650	0.541
PC-3 [JPC-3]	0.777

same assay, conditions: first compound 0.6325 µM

Cell Line	relative viability
NCI-H322M	0.546
LCLC-97TM1	0.625
NCI-H2009	0.604
A-427	0.496
NCI-H661	0.673
NCI-H1734	0.594
NCI-H460	0.587
NCI-H2347	0.503
SK-LU-1	0.313
201T	0.649
NCI-H1915	0.617
HCC-827	0.745
LXF-289	0.819
NCI-H23	0.608
NCI-H647	0.573
CAL-12T	0.604
NCI-H1651	0.584
EPLC-272H	0.311

Cell Line	relative viability
NCI-H2228	0.644
NCI-H1792	0.722
NCI-H1355	0.45
NCI-H3122	0.98
NCI-H1437	0.881
NCI-H1755	0.71
NCI-H2023	0.422
HCC-15	0.658
PC-14	0.82
EKVX	0.674
LC-2-ad	0.75
NCI-H1944	0.423
NCI-H1975	0.834
RERF-LC-KJ	0.644
ABC-1	0.471
NCI-H358	0.711
NCI-H650	0.443
PC-3 [JPC-3]	0.715

same assay, conditions: first compound 2 µM

Cell Line	relative viability
NCI-H322M	0.566
LCLC-97TM1	0.606
NCI-H2009	0.609
A-427	0.457
NCI-H661	0.715
NCI-H1734	0.552
NCI-H460	0.675
NCI-H2347	0.685
SK-LU-1	0.374
201T	0.606
NCI-H1915	0.63
HCC-827	0.734
LXF-289	0.713
NCI-H23	0.531
NCI-H647	0.773
CAL-12T	0.621
NCI-H1651	0.803
EPLC-272H	0.274

Cell Line	relative viability
NCI-H2228	0.584
NCI-H1792	0.803
NCI-H1355	0.511
NCI-H3122	0.876
NCI-H1437	0.951
NCI-H1755	0.759
NCI-H2023	0.351
HCC-15	0.697
PC-14	0.726
EKVX	0.737
LC-2-ad	1.05
NCI-H1944	0.47
NCI-H1975	0.752
RERF-LC-KJ	0.583
ABC-1	0.542
NCI-H358	0.834
NCI-H650	0.524
PC-3 [JPC-3]	0.872
